The record followed here is US20240270762A1, “PENICILLIN-BINDING PROTEIN INHIBITORS” (priority 2021, published 2024).

Molecules are shown by their SMILES. ≈ marks a conversion by molar mass, not a printed value. Where two headings read alike, the source gives them in different places. A value given as a limit tells only on which side of the number the result lay.

One assay deals with A. baumannii PBP2 (Acinetobacter baumannii, UniProt D0C8Z9). Put plainly: Bocillin-FL competition binding via gel filtration, A. baumannii PBP2. The method, boiled down:
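Enzyme pre-incubated with increasing inhibitor concentrations, then Bocillin-FL added for 15 min further incubation. Bocillin-FL-bound PBP separated by gel filtration and fluorescence read. EC50 from fitting fraction PBP bound vs inhibitor concentration to a Hill-type equation (ymin, ymax, n).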
For orientation: Size exclusion chromatography separates by hydrodynamic size, large species first.

The test system of a further assay is P. aeruginosa ATCC 27853. Kind of assay: microbe, parasite or virus in culture. The format is cell-based. Particulars: Pseudomonas aeruginosa, ATCC27853, read-out: Minimum inhibitory concentration, P. aeruginosa ATCC 27853.
For the next assay, the system named is P. aeruginosa CDC-0095. Kind of assay: microbe, parasite or virus in culture. The format is cell-based. Particulars: Pseudomonas aeruginosa, CDC0095, read-out: Minimum inhibitory concentration, P. aeruginosa CDC-0095.
For a further assay, the system named is P. aeruginosa CDC-0110. Put plainly: microbe, parasite or virus in culture. The format is cell-based. Conditions: Pseudomonas aeruginosa, CDC0110, read-out: Minimum inhibitory concentration, P. aeruginosa CDC-0110.
Another assay relates to A. baumannii CDC-0036. Kind of assay: microbe, parasite or virus in culture. Type of assay: cell-based. Particulars: Acinetobacter baumannii.
[1] abbreviates: CDC0036, read-out: MIC, A. baumannii CDC-0036.
Setting [2] is: CDC0036, read-out: Minimum inhibitory concentration (MIC), A. baumannii CDC-0036.

Sequence of A. baumannii PBP2 (D0C8Z9 whole entry): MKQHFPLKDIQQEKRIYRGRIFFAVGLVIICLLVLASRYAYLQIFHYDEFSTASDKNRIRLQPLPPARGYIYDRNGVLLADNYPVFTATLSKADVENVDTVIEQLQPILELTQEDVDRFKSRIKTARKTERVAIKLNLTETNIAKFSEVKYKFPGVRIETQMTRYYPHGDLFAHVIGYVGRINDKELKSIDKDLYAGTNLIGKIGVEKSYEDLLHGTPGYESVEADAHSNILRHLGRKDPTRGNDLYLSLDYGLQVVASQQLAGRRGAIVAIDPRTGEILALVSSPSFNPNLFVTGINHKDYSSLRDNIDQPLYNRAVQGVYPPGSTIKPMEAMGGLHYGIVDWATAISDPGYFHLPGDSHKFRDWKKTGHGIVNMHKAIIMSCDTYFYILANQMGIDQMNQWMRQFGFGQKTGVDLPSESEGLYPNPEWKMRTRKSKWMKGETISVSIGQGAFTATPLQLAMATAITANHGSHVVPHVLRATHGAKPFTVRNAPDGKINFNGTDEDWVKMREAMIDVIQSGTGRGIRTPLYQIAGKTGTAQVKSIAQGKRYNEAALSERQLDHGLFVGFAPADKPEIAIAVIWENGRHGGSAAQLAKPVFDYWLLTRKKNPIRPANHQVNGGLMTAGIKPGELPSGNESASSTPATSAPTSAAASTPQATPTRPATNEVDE

Broadly, the EC50 is the concentration giving half of the maximal effect. The low end stands for an effect from little substance, the high end for a need for much substance. As to `O=C(O)c1c(F)ccc2c1OB(O)[C@@H](NC(=O)[C@H](NC(=O)N1CCN(C3CCN(C(=O)Nc4cc(O)ccc4F)CC3)C1=O)c1cc(F)c(O)c(O)c1Cl)C2` (single isomer, unassigned) [Example 451], the EC50 on A. baumannii PBP2 was < 10 µM. The MIC with P. aeruginosa ATCC 27853, with P. aeruginosa CDC-0095, in the assay with P. aeruginosa CDC-0110 and with A. baumannii CDC-0036 (setting [1]) was < 1 µg/mL each time.

As for `O=C(O)c1c(F)ccc2c1OB(O)[C@@H](NC(=O)[C@H](NC(=O)N1CCN(C3CCN(C(=O)c4cc(O)ccc4Cl)CC3)C1=O)c1cc(F)c(O)c(O)c1Cl)C2` (single isomer, unassigned) [Example 434], the EC50 at A. baumannii PBP2 was < 10 µM. Further, the MIC with P. aeruginosa ATCC 27853, with P. aeruginosa CDC-0095, in the assay with P. aeruginosa CDC-0110 and with A. baumannii CDC-0036 (setting [1]) was < 1 µg/mL throughout.

`O=C(NCCS(=O)(=O)N1CCN(C(=O)N[C@H](C(=O)N[C@H]2Cc3ccc(F)c(C(=O)O)c3OB2O)c2ccc(P(=O)(O)O)cc2)C1=O)c1ccc(O)c(O)c1Cl` [Example 167, (R)-3-((S)-2-(3-((2-(2-chloro-3,4-dihydroxybenzamido)ethyl)sulfonyl)-2-oxoimidazolidine-1-carboxamido)-2-(4-phosphonophenyl)acetamido)-7-fluoro-2-hydroxy-3,4-dihydro-2H-benzo[e][1,2]oxaborinine-8-carboxylic acid] returned an EC50 on A. baumannii PBP2 of 10 to 50 µM. Moreover, the MIC with P. aeruginosa ATCC 27853, in the assay with P. aeruginosa CDC-0095, in the assay on P. aeruginosa CDC-0110 and with A. baumannii CDC-0036 (setting [1]) was > 128 µg/mL throughout.

At A. baumannii PBP2, `O=C(O)c1c(F)ccc2c1OB(O)[C@@H](NC(=O)[C@H](NC(=O)N1CCN(C3CCN(C(=O)c4ccc(O)c(O)c4Cl)CC3)C1=O)c1ccc(P(=O)(O)O)cc1)C2` [Example 494, (R)-3-((R)-2-(3-(1-(2-chloro-3,4-dihydroxybenzoyl)piperidin-4-yl)-2-oxoimidazolidine-1-carboxamido)-2-(4-phosphonophenyl)acetamido)-7-fluoro-2-hydroxy-3,4-dihydro-2H-benzo[e][1,2]oxaborinine-8-carboxylic acid] showed an EC50 of 10 to 50 µM. Besides, the MIC in the assay with P. aeruginosa ATCC 27853 is < 1 µg/mL; in the assay on P. aeruginosa CDC-0095 it was 8 to 16 µg/mL (≈ 9.95 to 19.9 µM); with A. baumannii CDC-0036 (setting [2]), < 1 µg/mL.

For the compound `O=C(O)c1c(F)ccc2c1OB(O)[C@@H](NC(=O)C(NC(=O)N1CCN(C3CCN(C(=O)Nc4c(F)ccc(O)c4F)CC3)C(=O)C1=O)c1cc(F)c(O)c(O)c1Cl)C2` (stereo partly drawn) [Example 487, (3R)-3-(2-(2-chloro-5-fluoro-3,4-dihydroxyphenyl)-2-(4-(1-((2,6-difluoro-3-hydroxyphenyl)carbamoyl)piperidin-4-yl)-2,3-dioxopiperazine-1-carboxamido)acetamido)-7-fluoro-2-hydroxy-3,4-dihydro-2H-benzo[e][1,2]oxaborinine-8-carboxylic acid], the EC50 at A. baumannii PBP2 was < 10 µM. In addition, the MIC in the assay on P. aeruginosa ATCC 27853, in the assay on P. aeruginosa CDC-0095 and in the assay with A. baumannii CDC-0036 (setting [2]) was < 1 µg/mL in each case.

At A. baumannii PBP2, `O=C(O)c1c(F)ccc2c1OB(O)[C@@H](NC(=O)[C@H](NC(=O)N1CCN(C3CCN(Cc4cccnc4)CC3)C1=O)c1cc(F)c(O)c(O)c1Cl)C2` [Example 492, (R)-3-((R)-2-(2-chloro-5-fluoro-3,4-dihydroxyphenyl)-2-(2-oxo-3-(1-(pyridin-3-ylmethyl)piperidin-4-yl)imidazolidine-1-carboxamido)acetamido)-7-fluoro-2-hydroxy-3,4-dihydro-2H-benzo[e][1,2]oxaborinine-8-carboxylic acid] gave an EC50 of 10 to 50 µM. In addition, the MIC with P. aeruginosa ATCC 27853 is < 1 µg/mL; in the assay on P. aeruginosa CDC-0095, 2 to 4 µg/mL (≈ 2.74 to 5.49 µM); in the assay on A. baumannii CDC-0036 (setting [2]), 2 to 4 µg/mL (≈ 2.74 to 5.49 µM).

Turning to `O=C(O)c1c(F)ccc2c1OB(O)[C@@H](NC(=O)[C@H](NC(=O)N1CCN(C3CCN(C(=O)Nc4cc(F)c(O)c(O)c4Cl)CC3)C1=O)c1ccc(P(=O)(O)O)cc1)C2` (single isomer, unassigned) [Example 500], the EC50 on A. baumannii PBP2 is < 10 µM. In addition, the MIC with P. aeruginosa ATCC 27853, in the assay with P. aeruginosa CDC-0095 and with A. baumannii CDC-0036 (setting [2]) was < 1 µg/mL each time.

`O=C(NCCN1CCN(C(=O)N[C@@H](C(=O)N[C@H]2Cc3ccc(F)c(C(=O)O)c3OB2O)c2ccc(P(=O)(O)O)cc2)C(=O)C1=O)c1ccc(O)c(O)c1Cl` [Example 503, (R)-3-((R)-2-(4-(2-(2-chloro-3,4-dihydroxybenzamido)ethyl)-2,3-dioxopiperazine-1-carboxamido)-2-(4-phosphonophenyl)acetamido)-7-fluoro-2-hydroxy-3,4-dihydro-2H-benzo[e][1,2]oxaborinine-8-carboxylic acid] displayed an EC50 on A. baumannii PBP2 of 10 to 50 µM. Besides, the MIC was < 1 µg/mL with P. aeruginosa ATCC 27853, < 1 µg/mL with P. aeruginosa CDC-0095 and 2 to 4 µg/mL (≈ 2.53 to 5.05 µM) with A. baumannii CDC-0036 (setting [2]).

`O=C(O)c1c(F)ccc2c1OB(O)[C@@H](NC(=O)C(NC(=O)N1CCN(S(=O)(=O)c3ccc(O)c(O)c3Cl)C1=O)c1ccc(P(=O)(O)O)cc1)C2` (stereo partly drawn) [Example 505, (3R)-3-(2-(3-((2-chloro-3,4-dihydroxyphenyl)sulfonyl)-2-oxoimidazolidine-1-carboxamido)-2-(4-phosphonophenyl)acetamido)-7-fluoro-2-hydroxy-3,4-dihydro-2H-benzo[e][1,2]oxaborinine-8-carboxylic acid]: the EC50 at A. baumannii PBP2 is < 10 µM. For the same compound, the MIC with P. aeruginosa ATCC 27853, in the assay on P. aeruginosa CDC-0095 and in the assay on A. baumannii CDC-0036 (setting [2]) was < 1 µg/mL in each case.

As to `O=C(O)c1c(F)ccc2c1OB(O)[C@@H](NC(=O)C(NC(=O)N1CCN(C3CCN(C(=O)Nc4cc(O)c(F)cc4Cl)CC3)C(=O)C1=O)c1cc(F)c(O)c(O)c1Cl)C2` (stereo partly drawn) [Example 490, (3R)-3-(2-(4-(1-((2-chloro-4-fluoro-5-hydroxyphenyl)carbamoyl)piperidin-4-yl)-2,3-dioxopiperazine-1-carboxamido)-2-(2-chloro-5-fluoro-3,4-dihydroxyphenyl)acetamido)-7-fluoro-2-hydroxy-3,4-dihydro-2H-benzo[e][1,2]oxaborinine-8-carboxylic acid], at A. baumannii PBP2, the EC50 is 10 to 50 µM. The MIC with P. aeruginosa ATCC 27853, in the assay with P. aeruginosa CDC-0095 and in the assay with A. baumannii CDC-0036 (setting [2]) was 2 to 4 µg/mL (≈ 2.34 to 4.69 µM) in each case.

With `O=C(O)c1c(F)ccc2c1OB(O)[C@@H](NC(=O)[C@H](NC(=O)N1CCN(C3CCN(C(=O)Nc4ccc(O)c(O)c4Cl)CC3)C1=O)c1ccc(P(=O)(O)O)cc1)C2` (single isomer, unassigned) [Example 497], the EC50 on A. baumannii PBP2 was < 10 µM. Moreover, the values for the MIC in the assay with P. aeruginosa ATCC 27853, with P. aeruginosa CDC-0095 and in the assay on A. baumannii CDC-0036 (setting [2]) were 2 to 4 µg/mL (≈ 2.44 to 4.88 µM), 32 to 64 µg/mL (≈ 39.1 to 78.2 µM) and < 1 µg/mL, respectively.

Turning to `O=C(O)c1c(F)ccc2c1OB(O)[C@@H](NC(=O)[C@H](NC(=O)N1CCN(C3CCN(C(=O)c4cc(F)c(O)c(O)c4Cl)CC3)C1=O)c1ccc(P(=O)(O)O)cc1)C2` (single isomer, unassigned) [Example 495], the EC50 at A. baumannii PBP2 is < 10 µM. Besides, the MIC in the assay with P. aeruginosa ATCC 27853 is < 1 µg/mL; in the assay on P. aeruginosa CDC-0095, 32 to 64 µg/mL (≈ 38.9 to 77.9 µM); in the assay on A. baumannii CDC-0036 (setting [2]) it was < 1 µg/mL.

Regarding `O=C(O)c1c(F)ccc2c1OB(O)[C@@H](NC(=O)[C@H](NC(=O)N1CCN(C3CCN(C(=O)Nc4cc(F)c(F)c(O)c4F)CC3)C(=O)C1=O)c1cc(F)c(O)c(O)c1Cl)C2` [Example 491, (R)-3-((R)-2-(2-chloro-5-fluoro-3,4-dihydroxyphenyl)-2-(2,3-dioxo-4-(1-((2,4,5-trifluoro-3-hydroxyphenyl)carbamoyl)piperidin-4-yl)piperazine-1-carboxamido)acetamido)-7-fluoro-2-hydroxy-3,4-dihydro-2H-benzo[e][1,2]oxaborinine-8-carboxylic acid], on A. baumannii PBP2, the EC50 was < 10 µM. In addition, the MIC in the assay on P. aeruginosa ATCC 27853, with P. aeruginosa CDC-0095 and in the assay with A. baumannii CDC-0036 (setting [2]) was 2 to 4 µg/mL (≈ 2.34 to 4.68 µM) throughout.

In the case of `O=C(O)c1c(F)ccc2c1OB(O)[C@@H](NC(=O)C(NC(=O)N1CCN(C3CCN(C(=O)Nc4ccc(Cl)c(O)c4F)CC3)C(=O)C1=O)c1cc(F)c(O)c(O)c1Cl)C2` (stereo partly drawn) [Example 489, (3R)-3-(2-(4-(1-((4-chloro-2-fluoro-3-hydroxyphenyl)carbamoyl)piperidin-4-yl)-2,3-dioxopiperazine-1-carboxamido)-2-(2-chloro-5-fluoro-3,4-dihydroxyphenyl)acetamido)-7-fluoro-2-hydroxy-3,4-dihydro-2H-benzo[e][1,2]oxaborinine-8-carboxylic acid], the EC50 at A. baumannii PBP2 is < 10 µM. For the same compound, the MIC was 2 to 4 µg/mL (≈ 2.34 to 4.69 µM) in the assay with P. aeruginosa ATCC 27853, < 1 µg/mL in the assay with P. aeruginosa CDC-0095 and 2 to 4 µg/mL (≈ 2.34 to 4.69 µM) in the assay on A. baumannii CDC-0036 (setting [2]).

For the compound `O=C(O)c1c(F)ccc2c1OB(O)[C@@H](NC(=O)[C@H](NC(=O)N1CCN(C3CCN(C(=O)c4cc(O)c(O)c(Cl)c4)CC3)C1=O)c1ccc(P(=O)(O)O)cc1)C2` [Example 496, (R)-3-((R)-2-(3-(1-(3-chloro-4,5-dihydroxybenzoyl)piperidin-4-yl)-2-oxoimidazolidine-1-carboxamido)-2-(4-phosphonophenyl)acetamido)-7-fluoro-2-hydroxy-3,4-dihydro-2H-benzo[e][1,2]oxaborinine-8-carboxylic acid], on A. baumannii PBP2, the EC50 was < 10 µM. For the same compound, the MIC was < 1 µg/mL in the assay on P. aeruginosa ATCC 27853, 8 to 16 µg/mL (≈ 9.95 to 19.9 µM) in the assay on P. aeruginosa CDC-0095 and < 1 µg/mL with A. baumannii CDC-0036 (setting [2]).

In turn, `O=C(O)c1c(F)ccc2c1OB(O)[C@@H](NC(=O)[C@H](NC(=O)N1CCN(C3CCN(Cc4ccncc4)CC3)C1=O)c1cc(F)c(O)c(O)c1Cl)C2` [Example 493, (R)-3-((R)-2-(2-chloro-5-fluoro-3,4-dihydroxyphenyl)-2-(2-oxo-3-(1-(pyridin-4-ylmethyl)piperidin-4-yl)imidazolidine-1-carboxamido)acetamido)-7-fluoro-2-hydroxy-3,4-dihydro-2H-benzo[e][1,2]oxaborinine-8-carboxylic acid] returned an EC50 at A. baumannii PBP2 of 10 to 50 µM. Besides, the MIC with P. aeruginosa ATCC 27853 is 2 to 4 µg/mL (≈ 2.74 to 5.49 µM); in the assay on P. aeruginosa CDC-0095, < 1 µg/mL; with A. baumannii CDC-0036 (setting [2]), < 1 µg/mL.
